From patent US9663460B2, “Sulfur derivatives as chemokine receptor modulators” (ALLERGAN, INC., priority 2010, dated 2017)

target: CCR2 (Homo sapiens (Human), UniProt P41597); assay: Calcium activity assayed on the FLIPR Tetra in HEK-Gqi5 cells stably expressing CCR2; assay type: cell-based; details: FLIPR Tetra calcium assay
Description: HEK-Gqi5 cells stably expressing CCR2 were cultured in (DMEM high glucose, 10% FBS, 1% PSA, 400 μg/ml geneticin and 50 μg/ml hygromycin. Appropriate positive control chemokines (MCP-1, MIP1A or RANTES) was used as the positive control agonist for screening compound-induced calcium activity assayed on the FLIPR^Tetra. The drug plates were prepared in 384-well microplates using the EP3 and the MuItiPROBE robotic liquid handling systems. Compounds were synthesized and tested for CCR^2 activity.

Sequence of CCR2 (P41597 whole entry, species assumed): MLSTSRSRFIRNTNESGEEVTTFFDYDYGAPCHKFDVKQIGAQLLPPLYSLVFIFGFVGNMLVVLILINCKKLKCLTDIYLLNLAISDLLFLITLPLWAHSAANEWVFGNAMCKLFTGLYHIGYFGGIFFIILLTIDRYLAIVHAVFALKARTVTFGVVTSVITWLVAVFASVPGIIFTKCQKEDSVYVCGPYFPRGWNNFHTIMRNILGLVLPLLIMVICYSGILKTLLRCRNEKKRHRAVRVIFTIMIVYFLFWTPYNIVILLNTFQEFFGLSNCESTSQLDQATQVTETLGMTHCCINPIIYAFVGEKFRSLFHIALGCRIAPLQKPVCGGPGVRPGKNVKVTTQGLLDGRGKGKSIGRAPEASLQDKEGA

Structure (SMILES) | CCR2 % ANTAGONISM [%] | IC50 [nM]
O=[N+]([O-])c1cccc([S+]([O-])c2ccc(Cl)cc2NS(=O)(=O)c2ccc(Cl)c(C(F)(F)F)c2)c1 (stereo not shown) | 85 | 509
CN(C)C(=O)C[S+]([O-])c1ccc(Cl)cc1NS(=O)(=O)c1ccc(Cl)c(C(F)(F)F)c1 (stereo not shown) [2-{[4-chloro-2-({[4-chloro-3-(trifluoromethyl)phenyl]sulfonyl}amino)phenyl]sulfinyl}-N,N-dimethylacetamide] | 100 | 268
CNC(=O)C[S+]([O-])c1ccc(Cl)cc1NS(=O)(=O)c1ccc(Cl)c(C(F)(F)F)c1 (stereo not shown) [2-{[4-chloro-2-({[4-chloro-3-(trifluoromethyl)phenyl]sulfonyl}amino)phenyl]sulfinyl}-N-methylacetamide] | 91 | 329
CN(C)C(=O)CC[S+]([O-])c1ccc(Cl)cc1NS(=O)(=O)c1cc2ccccc2o1 (stereo not shown) [3-({2-[(1-benzofuran-2-ylsulfonyl)amino]-4-chlorophenyl}sulfinyl)-N,N-dimethylpropanamide] | 104 | 160
CN(C)C(=O)CCS(=O)(=O)c1ccc(Cl)cc1NS(=O)(=O)c1cc2ccccc2o1 [3-({2-[(1-benzofuran-2-ylsulfonyl)amino]-4-chlorophenyl}sulfonyl)-N,N-dimethylpropanamide] | 99 | 76
CN(C)C(=O)CCSc1ccc(Cl)cc1NS(=O)(=O)c1cc2ccccc2o1 [3-({2-[(1-benzofuran-2-ylsulfonyl)amino]-4-chlorophenyl}thio)-N,N-dimethylpropanamide] | 100 | 146
CN(C)C(=O)CCS(=O)(=O)c1ccc(Cl)cc1NS(=O)(=O)c1ccc(F)cc1F [3-[(4-chloro-2-{[(2,4-difluorophenyl)sulfonyl]amino}phenyl)sulfonyl]-N,N-dimethylpropanamide] | 89 | 1580
CN(C)C(=O)CCSc1ccc(Cl)cc1NS(=O)(=O)c1ccc(F)cc1F [3-[(4-chloro-2-{[(2,4-difluorophenyl)sulfonyl]amino}phenyl)thio]-N,N-dimethylpropanamide] | 43 | 2150

Continued by falling IC50, values first:

CCR2 % ANTAGONISM [%] | IC50 [nM] | Structure (SMILES)
93 | 1480 | CN(C)C(=O)CC[S+]([O-])c1ccc(Cl)cc1NS(=O)(=O)c1ccc(F)cc1F (stereo not shown) [3-[(4-chloro-2-{[(2,4-difluorophenyl)sulfonyl]amino}phenyl)sulfinyl]-N,N-dimethylpropanamide]
96 | 469 | CNC(=O)CS(=O)(=O)c1ccc(Cl)cc1NS(=O)(=O)c1ccc(Cl)c(C(F)(F)F)c1 [2-{[4-chloro-2-({[4-chloro-3-(trifluoromethyl)phenyl]sulfonyl}amino)phenyl]sulfonyl}-N-methylacetamide]
98 | 462 | CN(C)C(=O)CS(=O)(=O)c1ccc(Cl)cc1NS(=O)(=O)c1ccc(Cl)c(C(F)(F)F)c1 [2-{[4-chloro-2-({[4-chloro-3-(trifluoromethyl)phenyl]sulfonyl}amino)phenyl]sulfonyl}-N,N-dimethylacetamide]
99 | 221 | CN(C)C(=O)CC[S+]([O-])c1ccc(Cl)cc1NS(=O)(=O)c1ccc(Cl)cc1F (stereo not shown) [3-[(4-chloro-2-{[(4-chloro-2-fluorophenyl)sulfonyl]amino}phenyl)sulfinyl]-N,N-dimethylpropanamide]
92 | 118 | CN(C)C(=O)CSc1ccc(Cl)cc1NS(=O)(=O)c1ccc(Cl)c(C(F)(F)F)c1 [2-{[4-chloro-2-({[4-chloro-3-(trifluoromethyl)phenyl]sulfonyl}amino)phenyl]thio}-N,N-dimethylacetamide]
87 | 44 | C[S+]([O-])c1ccc(Cl)cc1NS(=O)(=O)c1ccc(Cl)c(Cl)c1 (stereo not shown) [3,4-dichloro-N-[5-chloro-2-(methylsulfinyl)phenyl]benzenesulfonamide]
